PubChem BioAssay AID179 (DTP/NCI, 2004)
Active and inactive are the calls of the source.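 How the source made its calls: active means compounds giving half or more protection of infected cells from virus-caused growth loss, again on retest; inactive means the rest.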

System: CEM cells HIV-1 protection, formazan growth assay
Assay: NCI AIDS Antiviral Assay
Conditions: for IC50: measured here: growth of uninfected CEM cells
Summary of the method: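 Category rules: moderately active means at least 50% protection on retest, and confirmed active means 100% protection reproducibly. The underlying data came from a formazan growth assay in HIV-1-infected CEM cells.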

Row | SMILES | EC50 [µM] | IC50 [µM] | outcome
1 | O=C1/C(=C/c2ccc([N+](=O)[O-])cc2)CNC/C1=C\c1ccc([N+](=O)[O-])cc1 | > 2 | 0.363 | –
2 | Nc1cnc2c(c1)c(=O)nc1n2CCS1 | > 200 | 117 | –
3 | COc1ccc(C2OC[C@H]3O[C@@H](OCc4ccccc4)[C@H](O)[C@@H](O)[C@@H]3O2)cc1 (stereo not given in full) | > 200 | 35.5 | –
4 | O=C1OC(=O)c2c(O)cc(O)c(=O)cc21 | > 331 | 209 | –
5 | O=C(O)c1ccccc1-n1nc(C(=O)O)c(N=Nc2ccc(/C=C/c3ccc(N=Nc4c(C(=O)O)nn(-c5ccccc5C(=O)O)c4O)cc3S(=O)(=O)O)c(S(=O)(=O)O)c2)c1O.[Cu+2].[Na+] | > 0.479 | > 0.479 | –
6 | Cc1cc(=O)[nH]c(NN2C(Cl)C(=O)C2c2ccc(Cl)cc2)n1 (stereo not given) | > 55 | 4.68 | –
7 | Cn1c(=O)c2c(ncn2CC(=O)N/N=C2\SCC(=O)N2Cc2ccccc2)n(C)c1=O | > 74.1 | > 74.1 | –
8 | C[n+]1c(-c2ccc(/C=N\Nc3ccnc(N/N=C/c4ccc(-c5cn6ccsc6[n+]5C)cc4)n3)cc2)cn2ccsc21 | > 41.7 | 28.8 | –
9 | CN(C)c1ccc(C2CC(c3ccc4ccccc4c3O)=NN2)cc1 (stereo not given) | > 200 | 60.3 | –
10 | O=C1CC2c3ccccc3CCC2c2ccccc21 (stereo not given) | > 200 | 7.59 | –
11 | Ic1ccccc1SSc1ccccc1I | > 200 | 8.71 | –
12 | C/C(=N\N=C(N)N)c1sc(-c2nc(C)c(/C(C)=N/N=C(N)N)s2)nc1C | > 126 | > 126 | –
13 | Cc1cc(C)c2c(c1)C(=O)c1c(O)ccc(O)c1C2=O | – | – | inactive
14 | CN1c2ccccc2NP1(=S)Oc1ccccc1 (stereo not given) | > 93.3 | > 93.3 | –
15 | N[C@@H](C[S-])C(=O)O.O=[N+]([O-])O.[Ag+] | > 200 | 126 | –
16 | CC(/C=C/c1ccccc1)=N\N=C(C)\C=C\c1ccccc1 | > 13.2 | > 13.2 | –
17 | CC(=O)OCC(OC(C)=O)C(OC(C)=O)C(C=NN(C(C)=O)S(=O)(=O)c1ccc(/C=C2\NC(=O)NC2=O)cc1)OC(C)=O (stereo not given) | > 200 | 97.7 | –

Row | SMILES | EC50 [µM] | IC50 [µM] | outcome
18 | COC1/C=C/OC2(C)Oc3c(C)c(O)c4c(O)c(cc(OCC(=O)N(C)C5CCCC5)c4c3C2=O)NC(=O)/C(C)=C/C=C/C(C)C(O)C(C)C(O)C(C)C(OC(C)=O)C1C (stereo not given) | > 200 | 28.8 | –
19 | CCc1cccc(C(C)C)c1NC(=O)C(=O)C(C(=O)C(=O)OC)c1nc2ccccc2[nH]c1=O (stereo not given) | > 537 | 269 | –
20 | Cc1ccc2c(c1)-c1c(C#N)c(N)nc(-c3ccccc3)c1CCS2(=O)=O | > 200 | 2.09 | –
21 | O=C1C2C(C(=O)N1c1ccccc1)C1(c3ccccc3)SC2(c2ccccc2)c2c(-c3ccccc3)sc(-c3ccccc3)c21 (stereo not given) | – | – | inactive
22 | Nc1ncnc2c1ncn2C1OC(CO)C(O)C(O)C1O (stereo not given) | > 200 | > 200 | –
23 | COc1ccc(-n2cnc3c(NCC(=O)O)ncnc32)cc1 | > 200 | > 200 | –
24 | C#C[C@@]1(O)CCCC2=CC3(CC[C@]21C)SCCS3 | > 200 | 89.1 | –
25 | CC(C)(C)SS(=O)C(C)(C)C (stereo not given) | > 97.7 | > 97.7 | –
26 | CCOC(=O)c1cnn2c(SC)ncnc12 | > 282 | 67.6 | –
27 | NC(CCSSCCC(N)P(=O)(O)O)P(=O)(O)O (stereo not given) | > 200 | > 200 | –
28 | Cn1c2ccccc2c2nnc(-n3nc(-c4ccc(Br)cc4)cc3N)nc21 | > 200 | > 200 | –
29 | O=c1oc2ccccc2c(O)c1/C=N\c1nc(-c2ccccc2)cs1 | > 200 | 3.39 | –
30 | CCOC(=O)C(=Cc1ccco1)C(=O)OCC | > 151 | 85.1 | –
31 | N#Cc1n[nH]n(-c2ccccc2)c1=O | > 200 | > 200 | –
32 | Cn1cc(S(=O)(=O)NC(=O)Nc2ccc(Cl)cc2)c(=O)c2ccc(F)cc21 | – | – | inactive
33 | Cc1cnc2sn(-c3ccc([N+](=O)[O-])cc3)c(=O)c2c1 | 7.59 | 107 | –
34 | O=C(Nc1ccc(C2=NCCN2)cc1)C1CCC(C(=O)Nc2ccc(C3=NCCN3)cc2)CC1 (stereo not given) | > 200 | 11 | –
